Results published in US11667632B2, “2-(1H-indazol-3-yl)-3H-imidazo[4,5-C]pyridines and their anti-inflammatory uses thereof” (BioSplice Therapeutics, Inc., priority 2015, dated 2023).

Assays:
[1] = Quantitative whole body autoradiography and excretion of radiolabeled Compound 10 in rats; format: in vivo; conditions: SD rats, two IA injections at 1 μg/knee
Text: In terms of excretion, 95% of the excreted radioactivity was recovered in the feces and only 5% in the urine. QWBA radiographic images and quantitation of radioactivity in the feces with much less recovery in the urine, support the hypothesis that [^3H]-Compound 10 is being eliminated by drainage in the lumbar and inguinal lymph ducts and lymph nodes, and through the small and large intestines and cecum in a mechanism consistent with slow passive fecal excretion, a major route of elimination of slowly metabolized xenobiotics. During this process, the radiolabeled [3H]-Compound 10 was degraded with only ˜1.5% of parent detected in the fecal matter.

[2] = tested on: IL-5; assay: Inhibition of IL-5 in LPS-stimulated primary PBMCs (MSD U-plex); format: cell-based; conditions: human PBMCs, LPS (500 ng/mL), Compound 10 (150 nM), 24 hrs; MSD platform; FIG. 15
Protocol: (§1) Primary peripheral blood mononuclear cells (PBMCs) freshly isolated from healthy human donors were obtained from AllCells Inc. and utilized for assays immediately. Compound 10 was dissolved in DMSO as a 10 mM stock and used to prepare compound source plates. A serial dilution (8-point dose-response) and compound transfer was performed using the ECHO 550 (Labcyte, Sunnyvale, Calif.) into 96-well clear bottom assay plates (Greiner Bio-One) with appropriate DMSO backfill for a final DMSO concentration of 0.05%. PBMCs were plated at 2×10e^5 cells/well in Roswell Park Memorial Institute (RPMI) 1640 Medium (Catalog #21870-100, Buffalo, N.Y.) with 1% L-glutamine, 1% HEPES, 1% Sodium Pyruvate, 2% Sodium Bicarbonate supplemented with 100 units/mL penicillin, 50 μg/mL streptomycin and 1% fetal bovine serum (Catalog #16140089, Life Technologies, Carlsbad, Calif.). […]
(§2) Supernatants were diluted appropriately for ELISA. […] Following several washes to remove unbound avidin-HRP, the TMB substrate was added and the plates were read on the Cytation 3 plate reader (Biotek Inc., Winooski, Vt.) at an absorbance of 450 nm with correction at 570 nm. […] Inhibition profile and EC50 was calculated using Prism 5 (GraphPad Software Inc, La Jolla, Calif., USA). […] Levels of cytokines were calculated using software form Meso Scale Discovery.

[3] = tested on: TNF-α; assay: Inhibition of TNF-α in LPS-stimulated primary PBMCs (ELISA, MSD U-plex); format: cell-based; conditions: human PBMCs, LPS (500 ng/mL), Compound 10 (150 nM), 24 hrs; MSD platform; FIG. 15
Protocol: as §1, §2

[4] = tested on: Interleukin 1β (IL1β); assay: Inhibition of inflammatory cytokine expression in IL-1β-stimulated synovial fibroblasts, qRT-PCR; format: cell-based; conditions: human synovial fibroblasts, IL-1β (100 ng/mL), Compound 10 at 100 nM and 30 nM, 24 hrs; FIG. 14B
Protocol: Synovial fibroblasts were plated in 6-well plates at 0.5 million cells per well in Leibovitz's L-15 Medium with 1% FBS. Compound 10 dissolved in DMSO was added to the wells at different concentrations. […] Cells were harvested by trypsinization, pelleted, washed with PBS and Total RNA was isolated using RNeasy Mini Kit (Qiagen). cDNA was synthesized using the QuantiTect Reverse Transcription kit (Qiagen). qRT-PCR was performed with QuantiTect SYBR Green PCR Kit (Qiagen) and gene-specific primers, using CFX384 (Biorad). Transcripts were quantitated by comparative Ct method and normalized to endogenous controls, β-actin and GAPDH.

[5] = Plasma concentrations after a single intra-articular injection of radiolabeled Compound 10 in rats; format: in vivo, Sprague Dawley (SD) rats; conditions: SD rats, single IA injection 1 μg/knee
Protocol: Plasma concentration and distribution of Compound 10 following a single IA injection in Sprague Dawley (SD) rats were investigated in radiolabeled and mass balance studies with a tritium-labeled (^3H) Compound 10. [^3H]-Compound 10 was formulated as a suspension in 0.5% carboxymethylcellulose/0.05% polysorbate 80 for intra-articular (IA) injection and diluted with unlabeled Compound 10 to the appropriate concentration and injected in the rat knee joint at a dose level equivalent to 1 μg/knee.

excreted radioactivity recovered in the feces [1]: 95%
excreted radioactivity recovered in the urine [1]: 5%
parent detected in the fecal matter [1]: ~1.5%
total radioactivity recovered from the whole carcass, feces, urine and cage wash ([1]; QWBA): ~75%
radioactivity in major organs ([1]; at 1 hour and up to 168 hours post-IA injection): negligible/undetectable
Mean radioactivity exposure AUC(0-inf) ([5]; females): 1.818 ng-equiv.h/g
Mean radioactivity exposure AUC(0-t) ([5]; females): 1.040 ng-equiv.h/g
Tmax ([5]; females): 4 h
apparent terminal elimination half-life in the blood ([5]; females): 124 h
Mean radioactivity exposure AUC(0-inf.) ([5]; males): 1.548 ng-equiv.h/g
Mean radioactivity exposure AUC(0-t) ([5]; males): 0.832 ng-equiv.h/g
Tmax ([5]; males): 1 h
apparent terminal elimination half-life in the blood ([5]; males): 57 h
SMILES: CC(C)CC(=O)Nc1cncc(-c2ccc3[nH]nc(-c4nc5c(-c6cccc(F)c6)cncc5[nH]4)c3c2)c1 [Compound 10]
Inhibition of IL-5 [2]: Inhibition
Inhibition of TNF-α [3]: Inhibition
inhibition of inflammatory cytokine secretion (qRT-PCR) [4]: inhibition
